From patent US20080075688A1, “Use of non-digestible polymeric foams to sequester ingested materials thereby inhibiting their absorption by the body” (The Procter & Gamble Company, priority 2003, published 2008)

Columns and labels:
rats [1] = test: Fat excretion in rats on a high-fat diet (30% of calories as corn oil) for 9 days with XENICAL, Example 4; type: in vivo, rat; details: 400 ppm XENICAL without or with 0.5% HIPE foam in diet
Procedure: (§1) Three groups of rats were matched by weight and receive a high-fat diet (30% of calories as corn oil) for 9 days. One of the groups also received 400 ppm XENICAL® as part of the diet. The third group received both 400 ppm XENICAL® and 0.5% ground particulate HIPE foam from Example 1, Sample 1 as part of the diet. Total diet intake was measured throughout the study, and fecal output was measured in tail cups fitted to the animals during the last two days of the study. The pooled two-day collection of feces from each animal was analyzed for fat content according to AOAC method 954.04, published by AOAC International, Gaithersburg, Md.

rats [2] = test: Observer rating of oil on the fur of rats, Example 4; type: in vivo, rat
Procedure: as §1, with “Md. On days 5 and 7 of the study, the appearance of each animal was judged by two observers unaware of the dietary treatment of the animals. These observers assigned numerical values that increased with the amount of oil seen on the fur. A value of 1 was used to describe animals with no oil apparent on their fur. A value of 5 was used to describe animals with more than 90% of their fur coated with oil. Values of 2, 3, or 4, as appropriate, were assigned to animals with intermediate amounts of oil on the fur.” for “Md.”

Average Rating (oil on fur) (rats [2]; days 5 and 7, two blinded observers, scale 1 (no oil apparent on fur) to 5 (more than 90% of fur coated), control 1.03): 4.41
SMILES: CCCCCCCCCCC[C@@H](C[C@@H]1OC(=O)[C@H]1CCCCCC)OC(=O)[C@H](CC(C)C)NC=O [XENICAL ®, tetrahydrolipstatin]
Fat excretion versus the control group (rats [1]): significantly more fat than the control group | Mean Total 48 hour Lipid Excretion (rats [1]; corn oil diet 9 days, feces of last two days, control 0.16): 2.6 g | Excreted Fat (as % Ingested Fat) (rats [1]; corn oil diet 9 days, feces of last two days, control 3.9): 59.1 % Ingested Fat | Oil on fur rating compared with the other groups (rats [2]; 400 ppm XENICAL only versus control and XENICAL + foam): significantly different relative to the other two groups
